How the values were obtained:
Type in all cases: cell-based
HB-EGF [1] = experiment: HB-EGF gene expression in human squamous carcinoma cells (QRT-PCR); conditions: vs untreated control
Description: Compound G was tested on Human Squamous Carcinoma Cells for its ability to induce epidermal proliferation factor HB-EGF. For this assay, Human squamous carcinoma cells were seeded in 25 cm^2 flask and cultivated until 80% of cell confluence was reached. Test compounds were added to the culture medium and cells were incubated again 48 hours. At the end of the incubation cells were trypsinized and pelleted. […] was extracted and gene expression was measured with quantitative real time Polymerase Chain Reaction (QRT-PCR) using actin gene expression as internal standard. Variation of gene expression is expressed in percent versus the untreated control. Effect of Compound G on HB-EGF gene expression, assessed by real time QPCR was +187% and +370% vs. control at doses of 10^−6 and 10^−5 M respectively.

IL8 [2] = experiment: IL8 gene expression in human squamous carcinoma cells (QRT-PCR); conditions: for Effect on IL8 expression (48 h)vs control: vs untreated control
HB-EGF [3] = experiment: HB-EGF gene expression in ex vivo human skin explant (QRT-PCR)
Description: (§1) Ex vivo skin explants were prepared from skin abdominal biopsy after plastic surgery. Skin explants were maintained in culture medium at 37° C. in a water saturated atmosphere for 5 days. […] After 48 hours, half of the explants were taken and epidermal mRNA was extracted and expression of HB-EGF and IL8 genes was measured by Quantitative real time PCR (QRT-PCR). Explants were also fixed and slices were prepared and mounted on glass slides to be examined. Cell proliferation was also assessed by staining the cells with an antibody directed to the Ki67 protein and then counting the number of positive cell per mm (Table 4).

IL8 [4] = experiment: IL8 gene expression in ex vivo human skin explant (QRT-PCR)
Description: as §1

[5] = tested on: Ex vivo human skin explant; experiment: Cell proliferation (Ki67 staining) in ex vivo human skin explant; conditions: 10^−3 M topical, Control 90, Vehicle 45
Description: Ex vivo skin explants were prepared from skin abdominal biopsy after plastic surgery. Skin explants were maintained in culture medium at 37° C. in a water saturated atmosphere for 5 days. Compounds G was diluted in a mixture of propylene glycol (30%) and ethanol (70%) at 10^-3 M and topically applied on the explant surface. After 48 hours, half of the explants were taken and epidermal mRNA was extracted and expression of HB-EGF and IL8 genes was measured by Quantitative real time PCR (QRT-PCR). Explants were also fixed and slices were prepared and mounted on glass slides to be examined. Cell proliferation was also assessed by staining the cells with an antibody directed to the Ki67 protein and then counting the number of positive cell per mm (Table 4).

Question: With O=C(O)COc1ccc(/N=N/c2c(O)ccc3cc(Br)ccc23)cc1 [Compound G] as the compound, how does the “Effect on HB EGF expression vs control(48 h)” value (shortened to “Effect … vs control(48 h)”) (HB-EGF [1]; 10^−5 M) read?
Answer: Its value is 370%.

Question: And the “Effect … vs control(48 h)” value (HB-EGF [1]; 10^−5 M, listed as compound G)?
Answer: Its value is 370%.

Question: And the “Effect … vs control(48 h)” value (HB-EGF [1]; 10^−6 M)?
Answer: The value was 187%.

Question: And the “Effect … vs control(48 h)” value (HB-EGF [1]; 10^−6 M, listed as compound G)?
Answer: The value was 187%.

Question: What about the “Effect on IL8 expression (48 h)vs control” value (IL8 [2]; 10^−5 M) of the same compound?
Answer: The value was 44%.

Question: What about the “Effect on IL8 expression (48 h)vs control” value (IL8 [2]; 10^−6 M) of the same compound?
Answer: Its value is 10%.

Question: And the “IL8 expression induction (in words)” value (IL8 [2]; "at this dose" (10^−6 and 10^−5 M), 48 h)?
Answer: Its value is “did not significantly induce IL8 expression”.

Question: And the “Effect on HB EGF expression (48 h) vs vehicle” value (HB-EGF [3]; 10^−3 M topical)?
Answer: The value was 288%.

Question: And the “Effect on HB EGF expression (48 h) vs vehicle” value (HB-EGF [3]; 10^−4 M topical)?
Answer: The value was 159%.

Question: What about the “Effect on IL8 expression (48h)vs vehicle” value (IL8 [4]; 10^−3 M topical) of the same compound?
Answer: The value was 76%.

Question: And the “Effect on IL8 expression (48h)vs vehicle” value (IL8 [4]; 10^−4 M topical)?
Answer: The value was 65%.

Question: What about the “Cell proliferation (Ki67 + cells)” value [5] of the same compound?
Answer: The value was 150 positive cell per mm.

Source: patent publication US7803966B2, “Cosmetic and pharmaceutical compositions comprising compounds that display retinoid like activities” (Johnson & Johnson Consumer France, S.A.S., priority 2007, dated 2010)
